In patent US20150315241A1, “Antibiotic Peptides” (priority 2007, published 2015):
Converted amounts (≈) assume the structure as drawn. Where a SMILES comes first, the peptide text is derived from it. Where no end group is shown, it is not given here. [ ]: non-standard residue; d: D form. hArg = N=C(N)NCCCC[C@H](N)C(=O)O; Orn = NCCC[C@H](N)C(=O)O

Assays:
[1] = in vitro; format: in vitro ADME, mouse; settings: 25% aqueous mouse serum, 37° C.; read-out: Half-life time
Method: Serum stability studies were carried out in duplicate as described by Hoffmann et al.. Briefly, 28 μL of an aqueous peptide or peptidomimetics solution (0.5 mg/mL) was added to 0.2 mL freshly pooled 25% mouse serum (Sigma-Aldrich GmbH, Taufkirchen, Germany) in water. The mixtures were incubated at 37° C. under gentle stirring. The proteins were precipitated with 40 μL of 15% aqueous TCA after incubation times of 0, 0.5, 1, 2, 4 and 6 h at 0° C. for 20 min before centrifuged (13500×G) at 4° C. for 5 min. The supernatants of all samples (240 μL) were neutralized with 1 mol/L aqueous NaOH and immediately stored at −20° C. The supernatants were analyzed by RP-HPLC using a linear acetonitrile gradient as described above with 0.1% TFA as ion pair reagent. Collected fractions of the main peaks were further analyzed by tandem mass spectrometry (MALDI-TOF/TOF-MS, 4700 Proteomics Analyzer, Applied Biosystems GmbH, Weiterstadt, Germany) in positive ion reflector mode using α-cyanohydroxycinnamic acid (50% CH3CN in 0.1% aqueous TFA) as matrix to identify the degradation products of the peptides and peptidomimetics, i.e., metabolites, at the different time points. Serum control samples consisted of 200 μL of pooled 25% mouse serum in water, which were also precipitated with 40 μL 15% aqueous TCA, as described before. Peptide reference samples consisted of 28 μL of the peptide stock solution diluted in 0.2 mL water and 40 μL of 15% aqueous trichloroacetic acid (TCA).

[2] = system: E. coli BL 21 AI; assay: Growth inhibition assay (MIC); format: cell-based, Escherichia coli; settings: 1% TSB, 37° C., 20 hrs
Method in brief: (§1)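 Peptides were serially diluted two-fold in 1% TSB, giving final concentrations from 125 μg/mL down to 60 ng/mL, and mixed with overnight bacterial culture adjusted to 5×10^6 CFU/mL in 1% TSB. After 20 hrs at 37 °C, growth was read as absorbance at 595 nm, in triplicate, with sterile water as negative control.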

[3] = system: M. luteus ATCC 10240; format: cell-based, Micrococcus luteus; settings: ATCC 10240, 20 h
Method in brief: as §1

[4] = system: E. coli 1103; format: cell-based, Escherichia coli; settings: 1103, 20 h
Method: (§2) The minimal inhibition concentrations (MIC) of the apidaecin-derived peptides and peptide-derivatives were determined by a growth inhibition assay using a serial peptide dilution in sterilized round-bottom 96-well plates (polystyrene, U-bottom, Greiner Bio-One GmbH) with a final volume of 100 μL per well. The bacteria, e.g., E. coli BL21 A1, were grown in nutrient broth (NB, Carl Roth GmbH+Co. KG, Karlsruhe, Germany) at 37° C. over night. To each well of the 96-well plate, 50 μL of the overnight culture adjusted to 5×10^6 CFU/mL in 1% TSB were added. Lyophilized peptides and peptidomimetics were dissolved in 1% TSB (tryptic soy broth) or water to give a final concentration of 250 μg/mL. Fifty μL of the peptide or peptidomimetics solution were added to the first well of a row on the plate and mixed. Fifty μL of the first well containing the peptide solution were transferred to the second well, mixed and again 50 μL transferred to the next well and so on. Thereby, a two-fold dilution series was obtained starting at 250 μg/mL in the first well down to 120 ng/mL in the 12th well of a row giving a final peptide or peptidomimetics concentration from 125 μg/mL (well 1) to 60 ng/mL (well 12). Plates were incubated at 37° C. for 20 hrs. The absorbance was measured at 595 nm using a TECAN micro plate spectrophotometer (Tecan, Germany). All peptides and peptidomimetics were measured in triplicates. Sterilized water was used as a negative control.
(§3) The bacteria strains were tested: • Eschericha coli 1103, 10233, BL 21 AI, DC 2, • Klebsiella pneumoniae 681, • Micrococcus luteus ATCC 10240, • Mycobacterium vaccae • Bactillus subtillis 347.

[5] = system: K. pneumonia 681; format: cell-based, Klebsiella pneumoniae; settings: 20 h
Method: as §2, §3

[6] = system: B. subtilis 347; format: cell-based, Bactillus subtillis; settings: 347, 20 h
Method: as §2, §3

[7] = system: E. coli 45849; assay: Growth inhibition assay (MIC); format: cell-based, Escherichia coli; settings: multidrug resistant strain; 1% TSB, 37° C., 20 hrs
Method: as §2
(§4) The following multidrug resistant bacteria strains were tested: • Eschericha coli 45849 and D31, • Klebsiella pneumoniae 123132 and K6, • Salmonella typhi S5 and Salmonella enterica subsp. enterica serovar Typhimurium (ATCC 700408), • Rhizobium radiobacter (ATCC 15955 deposited as Agrobacterium tumefaciens).

[8] = system: S. typhi S5; format: cell-based, Salmonella typhi; settings: S5, 20 h
Method: as §2, §4

[9] = system: E. coli D31; format: cell-based, Escherichia coli; settings: D31, 20 h
Method: as §2, §4

[10] = system: K. Pneumonia 123132; assay: Growth inhibition assay (MIC); format: cell-based, Klebsiella pneumoniae; settings: multidrug resistant strain; 1% TSB, 37° C., 20 hrs
Method: as §2, §4

[11] = system: K. Pneumonia K6, ATCC 700603; assay: Growth inhibition assay (MIC); format: cell-based, Klebsiella pneumoniae; settings: multidrug resistant strain; 1% TSB, 37° C., 20 hrs
Method: as §2, §4

[12] = system: S. enterica subsp. Enterica serovar. typhi G10215 ATCC 700408; format: cell-based, Salmonella enterica; settings: ATCC 700408, 20 h
Method: as §2, §4

[13] = system: R. radiobatter ATCC 15955; assay: Growth inhibition assay (MIC); format: cell-based, Rhizobium radiobacter; settings: multidrug resistant strain; 1% TSB, 37° C., 20 hrs
Method: as §2, §4

| Molecule | half-life at 0.061 mg/mL [1] | MIC E. coli BL 21 AI [2] | MIC M. luteus ATCC 10240 [3] | MIC E. coli 45849 [7] | MIC S. typhi S5 [8] | MIC E. coli D31 [9] | MIC K. Pneumonia 123132 [10] | MIC K. Pneumonia K6, ATCC 700603 [11] | MIC S. enterica subsp. Enterica serovar. typhi G10215 ATCC 700408 [12] | also measured |
| --- | --- | --- | --- | --- | --- | --- | --- | --- | --- | --- |
| GNNRPVYIPQPRPPHPRL [compound 2] | 2 h | – | – | – | – | – | – | – | – | – |
| CC[C@H](C)[C@H](NC(=O)[C@H](Cc1ccc(O)cc1)NC(=O)[C@@H](NC(=O)[C@@H]1CCCN1C(=O)[C@H](CCCNC(=N)N)NC(=O)[C@H](CC(N)=O)NC(=O)[C@H](CC(N)=O)NC(=O)[C@H](CCCN)NC(C)=O)C(C)C)C(=O)N1CCC[C@H]1C(=O)N[C@@H](CCCNC(=N)N)C(=O)N1CCC[C@H]1C(=O)N[C@@H](CCCNC(=N)N)C(=O)N1CCC[C@H]1C(=O)N1CCC[C@H]1C(=O)N[C@@H](Cc1c[nH]cn1)C(=O)N1CCC[C@H]1C(=O)N[C@@H](CCCCNC(=N)N)C(=O)N[C@@H](CC(C)C)C(N)=O [compound 131] (Ac-[Orn]NNRPVYIPRPRPPHP[hArg]L-NH2) | 2 h | 4 µg/mL (≈ 1.78 µM) | 0.5 µg/mL (≈ 0.222 µM) | – | – | – | – | – | – | MIC E. coli 1103 [4]: 16 µg/mL (≈ 7.12 µM); MIC K. pneumonia 681 [5]: 16 µg/mL (≈ 7.12 µM); MIC B. subtilis 347 [6]: 32 µg/mL (≈ 14.2 µM) |
| GNNRPVYIPQPRPPHPRPIRV-NH2 [compound 110] | 6 h | – | – | – | – | – | – | – | – | – |
| CC[C@H](C)[C@H](NC(=O)[C@H](Cc1ccc(O)cc1)NC(=O)[C@@H](NC(=O)[C@@H]1CCCN1C(=O)[C@H](CCCNC(=N)N)NC(=O)[C@H](CC(N)=O)NC(=O)[C@H](CC(N)=O)NC(=O)[C@@H](N)CCCN)C(C)C)C(=O)N1CCC[C@H]1C(=O)N[C@@H](CCCNC(=N)N)C(=O)N1CCC[C@H]1C(=O)N[C@@H](CCCNC(=N)N)C(=O)N1CCC[C@H]1C(=O)N1CCC[C@H]1C(=O)N[C@@H](Cc1c[nH]cn1)C(=O)N1CCC[C@H]1C(=O)N[C@@H](CCCN)C(=O)N[C@@H](CC(C)C)C(N)=O [compound 81] (H-[Orn]NNRPVYIPRPRPPHP[Orn]L-NH2) | 2 h | – | – | 8 µg/mL (≈ 3.72 µM) | 4 µg/mL (≈ 1.86 µM) | 8 µg/mL (≈ 3.72 µM) | 8 µg/mL (≈ 3.72 µM) | 16 µg/mL (≈ 7.44 µM) | 4 µg/mL (≈ 1.86 µM) | – |
| GNNRPVYIPRPRPPHPRLV-NH2 [compound 25] | – | 3.91 µg/mL | 1.95 µg/mL | 1 µg/mL | 2 µg/mL | 64 µg/mL | 16 µg/mL | 16 µg/mL | 1 µg/mL | MIC R. radiobatter ATCC 15955 [13]: 0.65 µg/mL |
| GNNRPVYIPQPRPPHPRI-NH2 [compound 4] | 0.25 h | – | – | – | – | – | – | – | – | – |
